# Publication PMC10720248 (Frontiers in Chemistry, 2023)
# System: TLBro
# Conditions: pH 8.0, 37°C, 10 mM Tris-HCl, 100 mM NaCl, 10 mM CaCl2
smiles,measurement,value
"N=C(N)NCCCC(NC(=O)c1ccccc1)C(=O)Nc1ccc([N+](=O)[O-])cc1 (racemic) [DL-BAρNA, N-benzoyl-L-arginine-ρ-nitroanilide]",Km,850 µM
